{
  "source": "patent US20220249435A1",
  "about": "“Applications of Butyrolactone-I in Preparing Medicine for Preventing Neuroinflammation and/or Memory and Cognitive Disorders” (priority 2021, published 2022)",
  "format_in_all_cases": "in vivo",
  "key": {"zebrafish": {"test_system": "zebrafish", "experiment": "T maze memory test in AlCl3-injected zebrafish", "method": "Adult wild AB zebrafish (male: female ratio is 50%: 50%) with good growth of about 6-8 months are acclimated in a 50 L water tank for 2 weeks, the temperature is 25±2° C., the light-dark cycle is 14 hours: 10 hours, and Artemia larvae are fed at 9 am and 2 pm respectively.\n(§1) 75 zebrafish (3.0±0.4 cm) are randomly classified into control group, AlCl3 model group and 3 experimental groups with 15 zebrafish in each group, zebrafish in the experimental group are fed with food with butyrolactone-I content of 25 mg/kg, 50 mg/kg and 100 mg/kg for 20 days. zebrafish in control group and model group are fed the same amount of normal food respectively. 20 days later, after anesthesia, zebrafish in model group and experimental group are injected with AlCl3 solution (4.2 mg/mL, 5μL, pH=5.0±0.2) intraperitoneally, while zebrafish in the control group are injected with the same amount of normal saline. Memory test is performed in T maze 24 hours after injection.\n4 days before intraperitoneal injection, 6 fish are randomly selected from each group, and each day, they are trained separately in T maze for 5 minutes to find the eutrophic EC area. […] After 4 days of training, on the 5th day (24 hours after intraperitoneal injection), the behavior of the trained fish is tested in T maze. If the fish enters EC area and stays for more than 30 s, a valid incubation period is recorded. […] The behavioral test is conducted between 10 am and 1 pm. The Microsoft LifeCam Studio 1080p HD camera and powersoft software (Powersoft Co., Ltd., Hong Kong, China) are used to record videos. Supersys software is used to analyze the latent time (s), average swimming speed (cm/s) and the times of entering the EC zone for the first time."}, "TNF-α": {"test_system": "TNF-α", "experiment": "Level of inflammatory factor TNF-α in brain tissues of zebrafish", "conditions": "AlCl3 model, FIGS. 3E-3F", "method": "as §1\n(§2) 24 hours after the behavior test, the fish are euthanized, and every five fish in each group is a sample. The brain, surrounding tissues and intestines are collected and stored in a refrigerator at −80° C. All samples (except intestinal tract) are homogenized in phosphate buffer solution for further analysis. Centrifuging is conducted at 4° C. for 15 min at 1500 r/min, and the supernatant is collected. The changes of GSH level and AChE activity of tissue biomarkers are detected by using brain supernatant of zebrafish. […] According to OD value, the regression equation of IL-1β and TNF-α standard curves is calculated, and the logistic curve (4 parameters each) is used as a fitting model. […]"}, "AChE": {"test_system": "AChE", "experiment": "AChE activity in brain tissue of zebrafish", "conditions": "food with 25, 50, 100 mg/kg for 20 days; AlCl3 intraperitoneally; brain supernatant; FIG. 3B", "method": "as §1, §2"}, "[1]": {"test_system": "zebrafish intestinal flora", "experiment": "Intestinal flora of zebrafish by 16S V3-V4 sequencing", "method": "as §1\n(§3) 24 hours after the behavior test, the fish are euthanized, and every five fish in each group is a sample. The brain, surrounding tissues and intestines are collected and stored in a refrigerator at −80° C. All samples (except intestinal tract) are homogenized in phosphate buffer solution for further analysis. Centrifuging is conducted at 4° C. for 15 min at 1500 r/min, and the supernatant is collected. The changes of GSH level and AChE activity of tissue biomarkers are detected by using brain supernatant of zebrafish. In addition, brain samples and supernatant of peripheral tissues of zebrafish are used to determine the levels of IL-1β and TNF-α. The results are expressed by the activity of AChE per gram of protein and the amount of glutathione per gram of protein. According to OD value, the regression equation of IL-1β and TNF-α standard curves is calculated, and the logistic curve (4 parameters each) is used as a fitting model.\nGenomic DNA is extracted from 15 intestinal samples by proteinase K cleavage method, and sent to TinyGene Bio-Tech (ShangHai) Co., Ltd. for sequencing. The selected target gene is 16S V3-V4. According to the requirements of illumina high-throughput sequencing, two-way sequencing is carried out, and the target region and the fusion primer with “5′ linker-barcode-sequencing primer-specific primer-3′” are designed. The fusion primer comprises the following primers: […]\nThe library is constructed by a two-step PCR amplification method. First, specific primers (hereinafter described as inner primers) are used to amplify the target fragments, and then gel recovery is carried out on the target fragments. Then, the recovered products are used as templates for secondary PCR amplification (hereinafter described as outer primers for amplification). The purpose of amplification is to add the linker, sequencing primer and barcode needed by illumina platform sequencing to both ends of the target fragment.\nAxyPrepDNA gel recovery kit is used for recovery, FTC-3000™ real-time PCR is used for real-time fluorescence quantification, and then Illumina high-throughput sequencing and bioinformatics analysis are performed. The length of the sequence is 450 bp, and the sequencing result is the original data, and quality of the sequence is evaluated and optimized. Trimmomatic is used for sequence filtering and FLASH for jointing. Then ambiguity, homology and some chimeras generated in PCR are screened by motherur V. 1.39.5, and the optimized sequence for subsequent clustering OTU (operational taxonomic unit) and species information analysis is obtained. Using the software USEARCH, the jointed sequences are clustered into OTU (at 97% similarity level) for later analysis.\nVENN diagram may be used to count the number of common and unique OTU in multiple samples, and may intuitively show the similarity and overlap of OTU numbers of environmental samples. Usually the OTU sample table with a similar level of 97% is selected for analysis.\nAlpha diversity analysis reflects the richness and diversity of communities in the sample, using motheru (http://www.mothur.org/wiki/Schloss SOP#Alpha diversity) to calculate shannon, simpson, chao and ace indices, and using R (3.4.1) language tool to make charts. […]"}, "IL-1β": {"test_system": "IL-1β", "experiment": "Level of inflammatory factor IL-1β in brain and peripheral tissues of zebrafish", "method": "as §1, §3\nGraphpad Prism 8.0 is used for mapping, and One-way ANOVA and Dunnett's post hoc test are used to evaluate the differences between model group and control group, experimental group and model group."}, "GSH": {"test_system": "GSH", "experiment": "GSH level in brain tissue of zebrafish", "conditions": "food with 25, 50, 100 mg/kg for 20 days; AlCl3 intraperitoneally; brain supernatant; FIG. 3A", "method": "as §1, §2"}, "[2]": {"conditions": "phylum level, oral, AlCl3 model"}},
  "data": [
    {"smiles": "COC(=O)[C@@]1(Cc2ccc(O)c(CC=C(C)C)c2)OC(=O)C(O)=C1c1ccc(O)cc1", "note": "[butyrolactone-I]", "values": [
      {"measurement": "latent time for zebrafish to find the EC zone", "setting": "zebrafish; food with 25, 50, 100 mg/kg butyrolactone-I for 20 days, AlCl3 intraperitoneally, T maze 24 hours after injection, FIG. 1A", "result": "shorten the latent time"},
      {"measurement": "average swimming speed of zebrafish", "setting": "zebrafish; food with 25, 50, 100 mg/kg for 20 days, AlCl3 intraperitoneally, T maze, FIG. 1B", "result": "increase the average swimming speed"},
      {"measurement": "number of times that zebrafish enter the eutrophic EC zone", "setting": "zebrafish; food with 25, 50, 100 mg/kg for 20 days, AlCl3 intraperitoneally, T maze, FIG. 1C", "result": "add the number of times"},
      {"measurement": "lingering time of zebrafish in EC area", "setting": "zebrafish; food with 25, 50, 100 mg/kg for 20 days, AlCl3 intraperitoneally, T maze, FIGS. 2A-2E", "result": "prolong the lingering time"},
      {"measurement": "memory and cognitive disorder of zebrafish caused by aluminum trichloride", "setting": "zebrafish; overall conclusion of T maze test", "result": "obviously improve"},
      {"measurement": "level of inflammatory factor TNF-α in brain tissues of zebrafish", "setting": "TNF-α", "result": "reduce the level"},
      {"measurement": "AChE activity in brain tissue of zebrafish", "setting": "AChE", "result": "inhibit AChE activity"},
      {"measurement": "abundance of Alpinimonas", "setting": "[1]; genus level, oral, AlCl3 model", "result": "down-regulate"},
      {"measurement": "abundance of Bacillus", "setting": "[1]; genus level, oral, AlCl3 model", "result": "up-regulate"},
      {"measurement": "abundance of Bosea", "setting": "[1]; genus level, oral, AlCl3 model", "result": "down-regulate"},
      {"measurement": "abundance of Cetobacterium", "setting": "[1]; genus level, oral, AlCl3 model", "result": "down-regulate"},
      {"measurement": "abundance of Mycobacterium", "setting": "[1]; genus level, oral, AlCl3 model", "result": "down-regulate"},
      {"measurement": "abundance of Phreatobacter", "setting": "[1]; genus level, oral, AlCl3 model", "result": "down-regulate"},
      {"measurement": "abundance of Singulisphaera", "setting": "[1]; genus level, oral, AlCl3 model", "result": "down-regulate"},
      {"measurement": "disturbance of zebrafish intestinal flora caused by aluminum trichloride", "setting": "[1]; overall conclusion", "result": "regulate the disturbance"},
      {"measurement": "abundance of Chlamydiae", "setting": "[1]; [2]", "result": "down-regulate"},
      {"measurement": "abundance of Chloroflexi", "setting": "[1]; [2]", "result": "down-regulate"},
      {"measurement": "abundance of Fusobacterium", "setting": "[1]; [2]", "result": "down-regulate"},
      {"measurement": "abundance of Planctomycetes", "setting": "[1]; [2]", "result": "down-regulate"},
      {"measurement": "abundance of Phylum Firmicutes", "setting": "[1]; phylum level, oral, AlCl3 model, FIGS. 4A-4B", "result": "up-regulate"},
      {"measurement": "level of inflammatory factor IL-1β in the brain of zebrafish", "setting": "IL-1β; brain, AlCl3 model, FIG. 3C", "result": "reduce the level"},
      {"measurement": "nerve inflammation of zebrafish caused by aluminum trichloride", "setting": "IL-1β; overall conclusion of biochemical indexes", "result": "obviously improve"},
      {"measurement": "level of inflammatory factor IL-1β in peripheral tissues of zebrafish", "setting": "IL-1β; peripheral tissues, AlCl3 model, FIG. 3D", "result": "reduce the level"},
      {"measurement": "GSH level in brain tissue of zebrafish", "setting": "GSH", "result": "increase GSH level in brain tissue of zebrafish in a dose-dependent manner"}
    ]}
  ]
}
